{"source": "patent US8124364B2", "about": "“Biotin derivatives” (Glycorex Transplantation AB, priority 2000, dated 2012)", "key": {"Mitra Avidin-Agarose": {"target": "T1, Mitra Avidin-Agarose (Gallus gallus, UniProt P02701)", "T1 construct": "Mitra", "T1 sequence (P02701 25-152)": "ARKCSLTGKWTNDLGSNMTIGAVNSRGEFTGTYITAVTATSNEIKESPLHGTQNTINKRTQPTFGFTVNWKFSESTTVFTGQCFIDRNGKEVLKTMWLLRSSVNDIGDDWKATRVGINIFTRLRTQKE", "assay": "Adsorption of biotin-trimer to avidin-agarose column (conditioning), concentration in recirculated fluid by ELISA", "assay_type": "binding", "conditions": "2 mL Mitra Avidin-Agarose; 5 mL of 1 mg/mL biotin-trimer in PBS recirculated at 1 mL/min for 20 minutes; end of recirculation", "protocol": "Two mL of Mitra Avidin-Agarose was packed into a column housing and was washed with >10 mL of PBS at a flow rate of 1 mL/min (1.6 cm/min). Five mL of a 1 mg/mL solution of biotin-trimer in PBS was recirculated through the avidin-column at 1 mL/min for 20 minutes. At end of the recirculation, a sample (0.5 mL) was drawn from the recirculated solution and analysed by an ELISA technique developed by Mitra Medical Technology AB. The biotin-avidin-agarose-column was washed with phosphate buffer at 1 mL/min for 20 minutes. By determining the concentration of biotin-trimer in the recirculated fluid, the amount of adsorbed biotin-trimer was estimated to about 1.9 mg i.e. 0.95 mg/mL of gel at the end of recirculation.\nBiotin-trimer was adsorbed to 2 mL of Mitra Avidin-Agarose. […] If one biotin-trimer is bound per available binding site this would correspond to […] biotin-trimer/mL. As about 0.95 mg biotin-trimer was bound per mL avidin-agarose it can be assumed that the adsorbent was saturated with biotin-trimer."}, "avidin": {"target": "avidin (Gallus gallus, UniProt P02701)", "sequence (P02701 25-152)": "as above", "assay": "Assessment of avidin adsorption on a column conditioned with biotin trimer, avidin by ELISA", "assay_type": "binding", "protocol": "An avidin-agarose column that was conditioned with a biotin trimer (i.e. FIG. 4, compound #2) was primed with phosphate buffer. Following this, 20 mL avidin-solution with 1 mg avidin/mL in PBS was recirculated through a biotin-avidin-agarose-column at 1.0 mL/min (1.6 cm/min). Three volumes of the avidin solution (3×20 mL) were processed and aliquots were drawn from the reservoir before start of the recirculation, then after 2 main and in 5 min intervals. The aliquots were analyzed for the quantity of avidin in them using an ELISA technique developed by Mitra Medical Technology AB. The dotted line represented the theoretically expected if no saturation effect has occurred. The column is saturated after about 40 min (2 vol.) when about 16 mg (80%) of, avidin has been bound. Signs of saturation was seen after about 20 min (1.0 vol.) when the experimental curve begin to deviate from the theoretical curve which occurred when about 10 mg of Avidin had been bound to the column.\nAfter a 40 min recirculation, about 16 mg of avidin was bound, i.e. 8 mg/mL biotin-avidin-agarose. This corresponds to a 1:1 molar ration between the avidin coupled to agarose and the avidin adsorbed to the biotin-trimer. Initial saturation effects were seen after about one recirculated volume. After 2 volumes processed no further avidin was bound."}}}
{"smiles": "O=C(CCCCC1OCC2NC(=O)NC21)NCCOCCOCCNC(=O)c1cc(C(=O)NCCOCCOCCNC(=O)CCCCC2OCC3NC(=O)NC32)cc(C(=O)NCCOCCOCCNC(=O)CCCCC2OCC3NC(=O)NC32)c1", "note": "(stereo not drawn) [biotin-trimer]", "values": [{"measurement": "amount of adsorbed biotin-trimer", "setting": "Mitra Avidin-Agarose", "result": "about 1.9 mg"}, {"measurement": "time until signs of saturation", "setting": "avidin; 1.0 vol.", "result": "about 20 min"}, {"measurement": "avidin bound at saturation of the column", "setting": "avidin; 20 mL of 1 mg avidin/mL in PBS recirculated at 1.0 mL/min, after about 40 min (2 vol.)", "result": "about 16 mg"}, {"measurement": "avidin bound when signs of saturation were seen", "setting": "avidin; after about 20 min (1.0 vol.), experimental curve begins to deviate from theoretical curve", "result": "about 10 mg"}, {"measurement": "share of avidin bound at saturation", "setting": "avidin; after about 40 min (2 vol.)", "result": "~80", "unit": "%"}, {"measurement": "time until the column is saturated", "setting": "avidin; recirculation at 1.0 mL/min, 2 vol.", "result": "about 40 min"}]}
